Legend:
Experiment in all cases: MIC, CLSI broth microdilution
Type in all cases: cell-based
[1] = test system: S. pneumoniae ASPN1018 (Fluoroquinolone-resistant); conditions: Table 3
Outline: (§1)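 Broth microdilution per CLSI M7-A7, with serial two-fold compound dilutions in Mueller Hinton Broth mixed 1:1 with inoculum. Colonies from a previous-day agar plate were suspended in saline to a final 5×10^5 CFU/mL. Plates were incubated 20 hours at 35° C. in ambient air.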

[2] = test system: S. aureus ASAU001 (Fluoroquinolone-susceptible, ATCC29213)
Outline: as §1

[3] = test system: P. aeruginosa APAE054 (Fluoroquinolone-resistant)
Outline: as §1

[4] = test system: E. coli AECO002 (Fluoroquinolone susceptible); conditions: Table 3
Outline: as §1

[5] = test system: P. aeruginosa APAE001 (Fluoroquinolone-susceptible, ATCC27853)
Outline: as §1

[6] = test system: S. aureus ASAU1031 (Fluoroquinolone-resistant)
Outline: as §1

[7] = test system: S. pneumoniae ASPN002 (Fluoroquinolone-susceptible, ATCC10813); conditions: Table 3
Outline: as §1

[8] = test system: S. pneumoniae ASPN1027 (Fluoroquinolone-resistant)
Outline: as §1

[9] = test system: E. coli AECO066 (Fluoroquinolone-resistant)
Outline: as §1

[10] = test system: A. baumannii AABA1020 (Fluoroquinolone-resistant); conditions: Table 3
Outline: as §1

[11] = test system: A. baumannii AABA1009 (Fluoroquinolone-resistant); conditions: Table 2
Outline: as §1

[12] = test system: S. aureus ASAU002 (Fluoroquinolone-susceptible, ATCC33591 (MRSA)); conditions: Table 3
Outline: as §1

[13] = test system: P. aeruginosa APAE002 (Fluoroquinolone susceptible); conditions: Table 3
Outline: as §1

[14] = test system: E. coli AECO086 (Fluoroquinolone-resistant); conditions: Table 3
Outline: as §1

[15] = test system: A. baumannii AABA1065 (Fluoroquinolone-susceptible)
Outline: as §1

[16] = test system: S. aureus ASAU1033 (Fluoroquinolone-resistant); conditions: Table 3
Outline: as §1

[17] = test system: S. pneumoniae ASPN001 (Fluoroquinolone-susceptible, ATCC49619)
Outline: as §1

[18] = test system: E. coli AECO001 (Fluoroquinolone susceptible, ATCC25922)
Outline: as §1

Compound	MIC ASPN1018 [1]	MIC ASAU 001 ([2]; Table 2)	MIC ASAU 001 ([2]; Table 3)	MIC APAE 054 ([3]; Table 2)	MIC APAE 054 ([3]; Table 3)	MIC AECO002 [4]	MIC APAE 001 ([5]; Table 2)	MIC APAE 001 ([5]; Table 3)	MIC ASAU 1031 ([6]; Table 2)	MIC ASAU 1031 ([6]; Table 3)	MIC ASPN002 [7]	MIC ASPN 1027 ([8]; Table 2)	MIC ASPN 1027 ([8]; Table 3)	MIC AECO 066 ([9]; Table 2)	MIC AECO 066 ([9]; Table 3)	MIC AABA1020 [10]	MIC AABA 1009 [11]	MIC ASAU002 [12]	MIC APAE002 [13]	MIC AECO086 [14]	further results
N[C@@H]1C[C@H]2CCCc3c(c(F)cc4c(=O)c(C(=O)O)cn(C5CC5)c34)N2C1.O=C(O)C(F)(F)F [7D/39, (7aR,9R)-9-Amino-4-cyclopropyl-12-fluoro-1-oxo-4,5,6,7,7a,8,9,10-octahydro-1H-pyrrolo[1′,2′:1,7]-azepino[2,3-h]quinoline-2-carboxylic acid trifluoroacetate]	D (MIC's of greater than 8.0 μg/mL = D)	A (MIC's of 1.0 μg/mL or less = A)	A (MIC's of less than 1.0 = A)	C (MIC's of greater than 8.0 μg/mL = C)	D (MIC's of greater than 8.0 μg/mL = D)	A (MIC's of less than 1.0 = A)	B (MIC's of greater than 1.0 μg/mL to 8.0 μg/mL = B)	C (MIC's of 2.0 μg/mL to 8.0 μg/mL = C)	C (MIC's of greater than 8.0 μg/mL = C)	D (MIC's of greater than 8.0 μg/mL = D)	B (MIC's of 1.0 μg/mL to 2.0 μg/mL = B)	C (MIC's of greater than 8.0 μg/mL = C)	D (MIC's of greater than 8.0 μg/mL = D)	C (MIC's of greater than 8.0 μg/mL = C)	D (MIC's of greater than 8.0 μg/mL = D)	D (MIC's of greater than 8.0 μg/mL = D)	C (MIC's of greater than 8.0 μg/mL = C)	A (MIC's of less than 1.0 = A)	B (MIC's of 1.0 μg/mL to 2.0 μg/mL = B)	D (MIC's of greater than 8.0 μg/mL = D)	MIC AABA 1065 ([15]; Table 2): A (MIC's of 1.0 μg/mL or less = A); MIC AABA 1065 ([15]; Table 3): A (MIC's of less than 1.0 = A); MIC ASAU1033 [16]: D (MIC's of greater than 8.0 μg/mL = D); MIC ASPN 001 ([17]; Table 2): B (MIC's of greater than 1.0 μg/mL to 8.0 μg/mL = B); MIC ASPN 001 ([17]; Table 3): B (MIC's of 1.0 μg/mL to 2.0 μg/mL = B); MIC AECO 001 ([18]; Table 2, 35° C., 20 hours): A (MIC's of 1.0 μg/mL or less = A); MIC AECO 001 ([18]; Table 3): A (MIC's of less than 1.0 = A)
N[C@@H]1C[C@@H]2CCCc3c(c(F)cc4c(=O)c(C(=O)O)cn(C5CC5)c34)N2C1.O=C(O)C(F)(F)F [7E/49, (7aS,9R)-9-Amino-4-cyclopropyl-12-fluoro-1-oxo-4,5,6,7,7a,8,9,10-octahydro-1H-pyrrolo[1′,2′:1,7]-azepino[2,3-h]quinoline-2-carboxylic acid trifluoroacetate]	C (MIC's of 2.0 μg/mL to 8.0 μg/mL = C)	B (MIC's of greater than 1.0 μg/mL to 8.0 μg/mL = B)	C (MIC's of 2.0 μg/mL to 8.0 μg/mL = C)	C (MIC's of greater than 8.0 μg/mL = C)	D (MIC's of greater than 8.0 μg/mL = D)	D (MIC's of greater than 8.0 μg/mL = D)	C (MIC's of greater than 8.0 μg/mL = C)	D (MIC's of greater than 8.0 μg/mL = D)	C (MIC's of greater than 8.0 μg/mL = C)	D (MIC's of greater than 8.0 μg/mL = D)	D (MIC's of greater than 8.0 μg/mL = D)	C (MIC's of greater than 8.0 μg/mL = C)	D (MIC's of greater than 8.0 μg/mL = D)	C (MIC's of greater than 8.0 μg/mL = C)	D (MIC's of greater than 8.0 μg/mL = D)	D (MIC's of greater than 8.0 μg/mL = D)	C (MIC's of greater than 8.0 μg/mL = C)	C (MIC's of 2.0 μg/mL to 8.0 μg/mL = C)	D (MIC's of greater than 8.0 μg/mL = D)	D (MIC's of greater than 8.0 μg/mL = D)	MIC AABA 1065 ([15]; Table 2): C (MIC's of greater than 8.0 μg/mL = C); MIC AABA 1065 ([15]; Table 3): D (MIC's of greater than 8.0 μg/mL = D); MIC ASAU1033 [16]: D (MIC's of greater than 8.0 μg/mL = D); MIC ASPN 001 ([17]; Table 2): C (MIC's of greater than 8.0 μg/mL = C); MIC ASPN 001 ([17]; Table 3): D (MIC's of greater than 8.0 μg/mL = D); MIC AECO 001 ([18]; Table 2, 35° C., 20 hours): C (MIC's of greater than 8.0 μg/mL = C); MIC AECO 001 ([18]; Table 3): D (MIC's of greater than 8.0 μg/mL = D)
N[C@@H]1C[C@H]2CC=Cc3c(c(F)cc4c(=O)c(C(=O)O)cn(C5CC5)c34)N2C1.O=C(O)C(F)(F)F [7D/40, (7aR,9R)-9-Amino-4-cyclopropyl-12-fluoro-1-oxo-4,7,7a,8,9,10-hexahydro-1H-pyrrolo[1′,2′:1,7]-azepino[2,3-h]quinoline-2-carboxylic acid trifluoroacetate]	D (MIC's of greater than 8.0 μg/mL = D)	A (MIC's of 1.0 μg/mL or less = A)	A (MIC's of less than 1.0 = A)	C (MIC's of greater than 8.0 μg/mL = C)	D (MIC's of greater than 8.0 μg/mL = D)	A (MIC's of less than 1.0 = A)	B (MIC's of greater than 1.0 μg/mL to 8.0 μg/mL = B)	B (MIC's of 1.0 μg/mL to 2.0 μg/mL = B)	C (MIC's of greater than 8.0 μg/mL = C)	D (MIC's of greater than 8.0 μg/mL = D)	B (MIC's of 1.0 μg/mL to 2.0 μg/mL = B)	C (MIC's of greater than 8.0 μg/mL = C)	D (MIC's of greater than 8.0 μg/mL = D)	C (MIC's of greater than 8.0 μg/mL = C)	D (MIC's of greater than 8.0 μg/mL = D)	D (MIC's of greater than 8.0 μg/mL = D)	C (MIC's of greater than 8.0 μg/mL = C)	A (MIC's of less than 1.0 = A)	B (MIC's of 1.0 μg/mL to 2.0 μg/mL = B)	D (MIC's of greater than 8.0 μg/mL = D)	MIC AABA 1065 ([15]; Table 2): A (MIC's of 1.0 μg/mL or less = A); MIC AABA 1065 ([15]; Table 3): A (MIC's of less than 1.0 = A); MIC ASAU1033 [16]: D (MIC's of greater than 8.0 μg/mL = D); MIC ASPN 001 ([17]; Table 2): B (MIC's of greater than 1.0 μg/mL to 8.0 μg/mL = B); MIC ASPN 001 ([17]; Table 3): B (MIC's of 1.0 μg/mL to 2.0 μg/mL = B); MIC AECO 001 ([18]; Table 2, 35° C., 20 hours): A (MIC's of 1.0 μg/mL or less = A); MIC AECO 001 ([18]; Table 3): A (MIC's of less than 1.0 = A)

Source: patent US20120058989A1, “ANTIBACTERIAL FLUOROQUINOLONE ANALOGS” (Achaogen, Inc., priority 2008, published 2012)
